From patent US20110028504A1, “Formulation of radioprotective alpha beta unsaturated aryl sulfones” (ONCONOVA THERAPEUTICS, INC., priority 2005, published 2011)
Entries after “also recorded” stand apart in the source; their conditions may differ. Read-outs that look alike come from different tables or passages of the source.

Legend:
[1] = pH solubility testing in McIlvaine type buffer; format: physicochemical; details: thermodynamic from solid, read-out: Observed Solubility (C5)
Protocol: The solubility of ON.1210.Na salt is tested in McIlvaine type buffer with 0.1 M ionic strength. The buffers are prepared using the recipe mentioned in Table 17 The final pH is adjusted using 0.1N sodium hydroxide or 0.1N hydrochloric acid until the pH is within ±0.1 pH units of the target pH. The pKa of the drug calculated from pH-solubility study is depicted in Table 19. The solubility of the ON.1210.Na salt is tested in a McIlvaine type buffer with 0.1 M ionic strength. The buffers are prepared using the recipe mentioned in Table 16 using various volumes of 0.15 M citric acid monohydrate, and 0.2 M sodium phosphate dibasic, 12 hydrate. The final pH is adjusted using 0.1N sodium hydroxide or 0.1N hydrochloric acid until the pH is within ±0.1 pH units of the target pH. The samples for the pH solubility study are prepared by adding 10-20 mg of ON.1210.Na salt to a 4 mL vial. Then 1 mL of the appropriate pH buffer is added to the vial. The solution is mixed on a vortex genie for approximately 30 seconds. If the solution looks clear, additional drug is added. No additional drug is added to solutions which appear to be clear at a concentration of greater than 50 mg/mL. The study is done in duplicate. Once the solutions are prepared, the initial pH of the samples are measured. The solutions are then protected from light, and placed on a shaker. The solutions are agitated for 24 to 96 hours at ambient conditions. The vials are then removed from the orbital shaker, and the final pH of the solutions is measured for each sample. The solutions are then filtered, and analyzed by HPLC.

[2] = pH stability testing at 75° C. (HPLC); format: physicochemical
Protocol: (§1) The drug is dissolved in different pH buffers as outlined in Table 20. One hundred mL of each solution is prepared in a volumetric flask. Each solution is filtered through a 0.22 um filter. Approximately, four mL of the above solution is placed in 5 ml ampoules and sealed by a propane torch. The pH of the solution is determined at time zero and at each time interval. All the ampoules are placed in a 75° C. constant temperature oven. Any color changes or precipitation in the solution during the sample collection is visually observed. Concentration of the drug is determined at time zero and other time intervals by HPLC.
as §1, with “prepared in volumetric flask.” for “prepared in a volumetric flask.”, “filtered through 0.22 um” for “filtered through a 0.22 um”, “by HPLC. The pH and drug content of each sample are determined.” for “by HPLC.”
The data from the pH stability study is analyzed by plotting Log (conc.) versus time.
The rate constant for the degradation is determined using a linear regression at each individual pH.

SMILES: O=C([O-])c1ccc(/C=C/S(=O)(=O)Cc2ccc(Cl)cc2)cc1.[Na+] [ON.1210.Na, (E)-4-Carboxystyryl-4-chlorobenzylsulfone, Sodium Salt]
- Solubility ([1]; pH 4, aqueous buffer): 0.154 µg/mL
- Solubility ([1]; pH 5, aqueous buffer): 37.9 µg/mL
- Solubility ([1]; pH 6, aqueous buffer): 715 µg/mL
- Solubility ([1]; pH 7.4, aqueous buffer): 11100 µg/mL
- Solubility ([1]; pH 8, aqueous buffer): 16800 µg/mL
- Solubility ([1]; pH 9, aqueous buffer): 23300 µg/mL
- pH-stability profile ([2]; aqueous buffers pH 4 to 9, 75° C., Sodium Salt): better stability at neutral and biological pH but degradation is rapid under acidic condition; also recorded: dramatically improved as the pH is increased towards the neutral pH
- order of the degradation reaction ([2]; aqueous buffers, 75° C., Sodium Salt): pseudo-first-order rate; also recorded: pseudo first order reaction
- stability in an aqueous environment ([2]; biological pH): quite stable in an aqueous environment at biological pH
- Kobs, first order rate constant for the degradation ([2]; pH 4.0, 75° C.): 0.0621 day⁻¹
- Concentration of the ON.1210.Na determined by HPLC during the stability study ([2]; pH 4 buffer, 75° C., 0 hours, pH of the solution 4.03): 2704.7 ng/mL
- Concentration of the ON.1210.Na determined by HPLC during the stability study ([2]; pH 4 buffer, 75° C., 1 day, pH of the solution 4.3): 2659 ng/mL
- Concentration of the ON.1210.Na determined by HPLC during the stability study ([2]; pH 4 buffer, 75° C., 3 days, pH of the solution 4.12): 2633.1 ng/mL
- Concentration of the ON.1210.Na determined by HPLC during the stability study ([2]; pH 4 buffer, 75° C., 5 days, pH of the solution 4.5): 2734.4 ng/mL
- Concentration of the ON.1210.Na determined by HPLC during the stability study ([2]; pH 4 buffer, 75° C., 42 days, pH of the solution 3.84): 117.1 ng/mL
- Concentration of the ON.1210.Na determined by HPLC during the stability study ([2]; pH 4 buffer, 75° C., 54 days, pH of the solution 3.74): 161.4 ng/mL
- Kobs, first order rate constant for the degradation ([2]; pH 5.0, 75° C.): 0.0295 day⁻¹
- Concentration of the ON.1210.Na determined by HPLC during the stability study ([2]; pH 5 buffer, 75° C., 0 hours, pH of the solution 5.03): 4457.7 ng/mL
- Concentration of the ON.1210.Na determined by HPLC during the stability study ([2]; pH 5 buffer, 75° C., 1 day, pH of the solution 5.18): 4394 ng/mL
- Concentration of the ON.1210.Na determined by HPLC during the stability study ([2]; pH 5 buffer, 75° C., 3 days, pH of the solution 5.11): 4429.5 ng/mL
- Concentration of the ON.1210.Na determined by HPLC during the stability study ([2]; pH 5 buffer, 75° C., 5 days, pH of the solution 5.14): 4471.4 ng/mL
- Concentration of the ON.1210.Na determined by HPLC during the stability study ([2]; pH 5 buffer, 75° C., 10 days, pH of the solution 5.2): 1017 ng/mL
- Concentration of the ON.1210.Na determined by HPLC during the stability study ([2]; pH 5 buffer, 75° C., 17 days, pH of the solution 5.21): 838.2 ng/mL
- Concentration of the ON.1210.Na determined by HPLC during the stability study ([2]; pH 5 buffer, 75° C., 28 days, pH of the solution 4.71): 1334 ng/mL
- Concentration of the ON.1210.Na determined by HPLC during the stability study ([2]; pH 5 buffer, 75° C., 35 days, pH of the solution 4.93): 2813.7 ng/mL
- Concentration of the ON.1210.Na determined by HPLC during the stability study ([2]; pH 5 buffer, 75° C., 42 days): 1304.9 ng/mL
- Concentration of the ON.1210.Na determined by HPLC during the stability study ([2]; pH 5 buffer, 75° C., 54 days, pH of the solution 4.76): 953.9 ng/mL
- Kobs, first order rate constant for the degradation ([2]; pH 6.0, 75° C.): 0.0069 day⁻¹
- Concentration of the ON.1210.Na determined by HPLC during the stability study ([2]; pH 6 buffer, 75° C., 0 hours, pH of the solution 6.02): 22390 ng/mL
- Concentration of the ON.1210.Na determined by HPLC during the stability study ([2]; pH 6 buffer, 75° C., 1 day, pH of the solution 6.12): 22300 ng/mL
- Concentration of the ON.1210.Na determined by HPLC during the stability study ([2]; pH 6 buffer, 75° C., 3 days, pH of the solution 6.21): 22360 ng/mL
- Concentration of the ON.1210.Na determined by HPLC during the stability study ([2]; pH 6 buffer, 75° C., 5 days, pH of the solution 6.14): 22494.5 ng/mL
- Concentration of the ON.1210.Na determined by HPLC during the stability study ([2]; pH 6 buffer, 75° C., 10 days, pH of the solution 6.17): 19086.3 ng/mL
- Concentration of the ON.1210.Na determined by HPLC during the stability study ([2]; pH 6 buffer, 75° C., 17 days, pH of the solution 6.21): 18150 ng/mL
- Concentration of the ON.1210.Na determined by HPLC during the stability study ([2]; pH 6 buffer, 75° C., 28 days, pH of the solution 5.81): 17540.1 ng/mL
- Concentration of the ON.1210.Na determined by HPLC during the stability study ([2]; pH 6 buffer, 75° C., 35 days, pH of the solution 5.92): 17397.9 ng/mL
